This note sets out measurements from patent US11827624B2, “Covalent immune recruiter compounds for immune cell recognition and associated uses” (McMaster University, priority 2020, dated 2023).

Molecules are shown by their SMILES.

One assay relates to PSMA+HEK cells. Description: CD16α activation assay with pan human IgG as source of sAb. The class given is cell-based. Conditions: pan IgG 230 μM, ~10 nM anti-DNP IgG. Here is the method:
Preparation of antibody-CIR/ARM stocks were mixed overnight prior to addition to the ADCC plate. In the case of mmAb and mAb, incubation was carried out at 600 nM antibody and 1.2 μM CIR or ARM. In the case of IgG from serum, incubation was completed at 230 μM antibody and 8.7 μM CIR or ARM. In all cases, DMSO was kept close to 1%. After the overnight incubation, a dilution series was completed on the antibody-CIR/ARM stocks in RPMI (1% DMSO). Target cells were seeded at a density of 2.5×10^4 cells per well in opaque 96 well flat-bottom plates (Corning Costar, 3917) in complete media. Sixteen hours after seeding, cells were washed gently with 100 μL of neat RPMI. To the cells, 25 μL of RPMI supplemented with 4% ultra-low IgG FBS was added followed by 25 μL of antibody+/−CIR/ARM conditions described above. After a 30-minute incubation, 25 μL of supplemented RPMI containing 7.5×10^4 Jurkat effector cells expressing human FcgRIlla (CD16) were added to each well. The plates were then incubated for 6 additional hours. 75 μL of Bio-Glo Luciferase Assay Reagent was added to each well, and luminescence was quantified using the SpectraMax i3 plate reader.
Depleted serum IgG is derived from pan serum human IgG passed through DNP coated beads to remove endogenous anti-DNP IgG. […]

In a further assay the test system is HEK PSMA+cells. Description: Flow cytometry antibody recruitment to the target cell surface. In kind it is cell-based, human. On the procedure:
CIR 3 or ARM 11 (640 nM) was incubated with 320 nM antibody (mmAb or mAb) at room temperature overnight. After overnight incubation, a dilution series (1:2, 1:3, 1:3, 1:3) was conducted using each condition stock which was then equilibrated for 90 minutes prior to addition to the assay well plate. HEK293 cells transfected with PSMA, were washed 3× and placed in a flow buffer containing 4% FBS, 0.5 mM EDTA/EGTA, 0.1% Sodium Azide, at a concentration of 2×10^6 Cells/mL. 75 μL of cells were added (150 000 Cells per sample) and kept on ice. 25 μL of antibody+CIR or antibody+ARM conditions prepared above were added to the target cells (experimental antibody concentrations: 80 nM, 40 nM, 13.3 nM, 4.4 nM, 1.5 nM). For the DNP Control, 4.5 mM was added to antibody for 5 minutes, then the CIR/ARM was added, and the solution incubated overnight. […]
Elimination equilibrium of the ARM:antibody through a covalent linkage to CIRs, and its impact on total antibody recruitment to target cells, at different therapeutically relevant antibody concentrations was next evaluated. […] This leads to increases in the mean fluorescence intensity (MFI) of associated cell populations, detectable in flow cytometry.
Antibody recruitment to the cell surface is proportional to the mean fluorescence intensity (MFI) of cell populations, bound to mmAb antibody complexes comprising CIR 3 or ARM 11. […]

Take `O=C(O)CC[C@H](NC(=O)N[C@@H](CCCCNC(=O)NCCOCCOCCOCCOCCOCCOCCOCCOC(=O)n1cnc(CCNC(=O)CNc2ccc([N+](=O)[O-])cc2[N+](=O)[O-])c1)C(=O)O)C(=O)O` [CIR 3]: the CD16α activation entry in the assay on PSMA+HEK cells is recorded as “mediated efficient CD16α activation”. Moreover, the “total antibody recruitment to the target cell surface (MFI)” value in the assay on HEK PSMA+cells (higher antibody concentrations (40-80 nM)) was “comparable efficiencies”; with HEK PSMA+cells (sub-saturating mAb or mmAb (<40 nM), 37° C.), “more total antibody recruitment to the target cell surface compared to ARM 11”.
